Our source for the IC50 values is patent US9902696B2, “1,4-substituted piperidine derivatives” (Cephalon, Inc., priority 2015, dated 2018).

Counter-ions that a name gives are not always drawn.

T1 sequence (P49327 whole entry): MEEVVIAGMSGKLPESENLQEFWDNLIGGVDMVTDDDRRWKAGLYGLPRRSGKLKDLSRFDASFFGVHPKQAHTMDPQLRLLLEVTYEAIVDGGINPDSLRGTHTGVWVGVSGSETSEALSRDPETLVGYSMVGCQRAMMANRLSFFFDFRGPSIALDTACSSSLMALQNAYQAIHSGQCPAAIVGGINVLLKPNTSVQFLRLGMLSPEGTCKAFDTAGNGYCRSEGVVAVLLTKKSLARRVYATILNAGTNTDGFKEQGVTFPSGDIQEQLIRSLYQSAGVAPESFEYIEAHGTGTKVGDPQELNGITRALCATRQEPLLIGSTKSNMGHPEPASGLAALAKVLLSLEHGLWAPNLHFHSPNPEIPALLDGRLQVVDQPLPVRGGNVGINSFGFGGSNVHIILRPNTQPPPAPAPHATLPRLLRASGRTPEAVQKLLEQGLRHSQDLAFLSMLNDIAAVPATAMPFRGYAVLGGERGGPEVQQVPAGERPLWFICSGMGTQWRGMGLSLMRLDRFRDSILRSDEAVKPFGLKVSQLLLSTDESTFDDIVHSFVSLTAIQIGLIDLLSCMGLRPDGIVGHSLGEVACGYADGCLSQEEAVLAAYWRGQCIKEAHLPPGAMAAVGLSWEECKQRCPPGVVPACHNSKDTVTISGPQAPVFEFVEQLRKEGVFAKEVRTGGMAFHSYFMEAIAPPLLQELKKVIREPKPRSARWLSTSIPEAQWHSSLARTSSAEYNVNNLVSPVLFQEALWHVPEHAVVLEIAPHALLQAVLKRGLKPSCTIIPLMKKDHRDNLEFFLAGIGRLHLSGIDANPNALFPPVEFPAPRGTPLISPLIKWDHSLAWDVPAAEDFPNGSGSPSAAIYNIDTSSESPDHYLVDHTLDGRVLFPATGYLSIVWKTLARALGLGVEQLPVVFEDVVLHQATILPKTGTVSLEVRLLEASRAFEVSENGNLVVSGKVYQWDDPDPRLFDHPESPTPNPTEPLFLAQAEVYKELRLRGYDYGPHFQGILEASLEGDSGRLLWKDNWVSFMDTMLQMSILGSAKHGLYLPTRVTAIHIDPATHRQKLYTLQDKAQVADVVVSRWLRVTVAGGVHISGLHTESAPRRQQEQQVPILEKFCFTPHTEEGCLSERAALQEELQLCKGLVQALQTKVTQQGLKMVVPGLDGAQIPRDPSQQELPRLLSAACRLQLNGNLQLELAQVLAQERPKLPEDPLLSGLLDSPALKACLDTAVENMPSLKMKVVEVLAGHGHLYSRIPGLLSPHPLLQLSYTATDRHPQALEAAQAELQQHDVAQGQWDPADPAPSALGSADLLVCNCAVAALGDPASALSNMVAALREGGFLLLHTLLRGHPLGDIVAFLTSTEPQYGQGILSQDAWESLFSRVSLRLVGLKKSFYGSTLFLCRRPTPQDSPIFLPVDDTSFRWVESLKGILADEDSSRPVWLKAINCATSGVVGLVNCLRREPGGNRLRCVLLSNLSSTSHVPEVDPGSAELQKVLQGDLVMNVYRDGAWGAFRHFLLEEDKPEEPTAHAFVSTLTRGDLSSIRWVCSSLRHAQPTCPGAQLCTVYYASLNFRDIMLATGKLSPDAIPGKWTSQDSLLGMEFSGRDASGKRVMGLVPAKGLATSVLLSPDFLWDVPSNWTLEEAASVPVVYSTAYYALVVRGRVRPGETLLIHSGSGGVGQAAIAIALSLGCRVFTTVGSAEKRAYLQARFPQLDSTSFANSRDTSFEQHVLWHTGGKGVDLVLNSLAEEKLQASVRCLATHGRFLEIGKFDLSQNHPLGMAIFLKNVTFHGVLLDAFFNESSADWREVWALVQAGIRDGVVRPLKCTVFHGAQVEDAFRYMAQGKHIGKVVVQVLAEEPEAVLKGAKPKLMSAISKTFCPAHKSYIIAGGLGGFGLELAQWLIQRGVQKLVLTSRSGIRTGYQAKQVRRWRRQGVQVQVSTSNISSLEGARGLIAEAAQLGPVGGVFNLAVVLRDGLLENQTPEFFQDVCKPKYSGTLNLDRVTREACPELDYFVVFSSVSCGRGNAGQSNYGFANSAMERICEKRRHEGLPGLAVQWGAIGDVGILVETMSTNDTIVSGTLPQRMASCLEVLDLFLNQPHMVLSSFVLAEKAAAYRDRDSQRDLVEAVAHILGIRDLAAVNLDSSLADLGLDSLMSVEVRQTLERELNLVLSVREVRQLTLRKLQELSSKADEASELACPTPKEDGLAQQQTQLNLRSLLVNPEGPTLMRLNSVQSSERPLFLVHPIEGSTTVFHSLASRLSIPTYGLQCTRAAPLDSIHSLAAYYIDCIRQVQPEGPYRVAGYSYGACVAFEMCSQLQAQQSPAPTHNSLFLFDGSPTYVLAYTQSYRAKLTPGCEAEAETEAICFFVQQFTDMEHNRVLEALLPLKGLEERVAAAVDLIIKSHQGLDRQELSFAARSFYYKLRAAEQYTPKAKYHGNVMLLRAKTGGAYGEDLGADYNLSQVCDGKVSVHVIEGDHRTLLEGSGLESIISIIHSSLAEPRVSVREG

The assay has as its target T1, recombinant human baculovirus-expressed GST-tagged FASN (Homo sapiens, UniProt P49327).
T1 construct: GST
Nature of the assay: FASN enzyme activity assay, fluorescence-based detection of CoA with CPM. The assay is classed as biochemical. The conditions noted are these: 5 nM FASN, 150 μM NADPH, 10 μM acetyl-CoA, 25 μM malonyl-CoA, 90 minutes incubation; read-out: IC50 data for Compounds of Formulae I-V/V(a): Activity. In short, it runs like this:
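CoA product reacted with thiol-reactive CPM (diluted to 50 μM in 70% ethanol), read at 390/530 nm after 30 min. Preceding reaction: 90 min, 5 nM recombinant GST-FASN, 150 μM NADPH, 10 μM acetyl-CoA, 25 μM malonyl-CoA, pH 7.5 HEPES, 0.5% DMSO. IC50s fitted by nonlinear sigmoidal regression.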
Regarding `CCC(=O)N1CCC(Oc2ccc(-c3cncc(Nc4ccccc4)c3)cc2)CC1` [Example 401, 1-{4-[4-(5-Phenylaminopyridin-3-yl)-phenoxy]-piperidin-1-yl}-propan-1-one, TFA salt], the IC50 lay in the range of 1000 to 10000 nM.
In the case of `CCC(=O)N1CCC(Oc2ccc(-c3ccnc(-c4ccccc4)c3)cc2)CC1` [Example 402, 1-{4-[4-(2-Phenylpyridin-4-yl)-phenoxy]-piperidin-1-yl}-propan-1-one, TFA], the IC50 fell in the range of 1000 to 10000 nM.
As for `O=C(C1CC1)N1CCC(Oc2ccc(-c3ccnc(-c4ccccc4)c3)cc2)CC1` [Example 403, Cyclopropyl-{4-[4-(2-phenylpyridin-4-yl)-phenoxy]-piperidin-1-yl}-methanone, TFA salt], the IC50 was 1000 to 10000 nM.
The value for `CCC(=O)N1CCC(Oc2ccc(-c3ccnc(Nc4ccccc4)c3)cc2)CC1` [Example 404, 1-{4-[4-(2-Phenylaminopyridin-4-yl)-phenoxy]-piperidin-1-yl}-propan-1-one] was 1000 to 10000 nM; that for `O=C(C1CC1)N1CCC(Oc2ccc(-c3ccnc(Nc4ccccc4)c3)cc2)CC1` [Example 405, Cyclopropyl-{4-[4-(2-phenylaminopyridin-4-yl)-phenoxy]-piperidin-1-yl}-methanone] was 1000 to 10000 nM; that for `CCC(=O)N1CCC(Oc2ccc(-c3cccc(-c4ccccn4)c3C)cc2)CC1` [Example 406, 1-[4-(2′-Methyl-3′-pyridin-2-yl-biphenyl-4-yloxy)-piperidin-1-yl]-propan-1-one; TFA salt] was 1000 to 10000 nM.
The value for `Cc1c(-c2ccc(OC3CCN(C(=O)C4CC4)CC3)cc2)cccc1-c1ccccn1` [Example 407, Cyclopropyl-[4-(2′-methyl-3′-pyridin-2-yl-biphenyl-4-yloxy)-piperidin-1-yl]-methanone, TFA salt] was 1000 to 10000 nM.
Turning to `Cc1c(-c2ccc(OC3CCN(C(=O)C4CCC4)CC3)cc2)cccc1-c1ccccn1` [Example 408, Cyclobutyl-[4-(2′-methyl-3′-pyridin-2-yl-biphenyl-4-yloxy)-piperidin-1-yl]-methanone, TFA salt], the IC50 lay within 1000 to 10000 nM.
Take `CCC(=O)N1CCC(Oc2ccc(-c3ccnc(Oc4ccccc4)c3)cc2)CC1` [Example 409, 1-{4-[4-(2-Phenoxypyridin-4-yl)-phenoxy]-piperidin-1-yl}-propan-1-one]: the IC50 fell in the range of 1000 to 10000 nM.
On to `CCC(=O)N1CCC(Oc2ccc(-c3cc(OC)c4ccnn4c3)cc2)CC1` [Example 410, 1-{4-[4-(4-Methoxypyrazolo[1,5-a]pyridin-6-yl)-phenoxy]-piperidin-1-yl}-propan-1-one, HCl], for which the IC50 was in the range of 100 to 999 nM.
The value for `COc1cc(-c2ccc(OC3CCN(C(=O)C4CC4)CC3)cc2)cn2nccc12` [Example 411, Cyclopropyl-{4-[4-(4-methoxypyrazolo[1,5-a]pyridin-6-yl)-phenoxy]-piperidin-1-yl}-methanone, HCl] was 100 to 999 nM; that for `COc1cc(-c2ccc(OC3CCN(C(=O)C4CCC4)CC3)cc2)cn2nccc12` [Example 412, Cyclobutyl-{4-[4-(4-methoxypyrazolo[1,5-a]pyridin-6-yl)-phenoxy]-piperidin-1-yl}-methanone, HCl] was 1 to 99 nM; that for `CCC(=O)N1CCC(Oc2ccc(-c3ccc4cnc(Cl)cc4c3)cc2)CC1` [Example 413, 1-{4-[4-(3-Chloroisoquinolin-6-yl)-phenoxy]-piperidin-1-yl}-propan-1-one] was 1000 to 10000 nM.
The value for `O=C(C1CC1)N1CCC(Oc2ccc(-c3ccc4cnc(Cl)cc4c3)cc2)CC1` [Example 414, {4-[4-(3-Chloroisoquinolin-6-yl)-phenoxy]-piperidin-1-yl}-cyclopropyl-methanone] was 1000 to 10000 nM; that for `CCC(=O)N1CCC(Oc2ccc(-c3ccc4cnc(OC)cc4c3)cc2)CC1` [Example 415, 1-{4-[4-(3-Methoxyisoquinolin-6-yl)-phenoxy]-piperidin-1-yl}-propan-1-one] was 1000 to 10000 nM; that for `COc1cc2cc(-c3ccc(OC4CCN(C(=O)C5CC5)CC4)cc3)ccc2cn1` [Example 416, Cyclopropyl-{4-[4-(3-methoxyisoquinolin-6-yl)-phenoxy]-piperidin-1-yl}-methanone] was 100 to 999 nM.
Regarding `COc1cc2cc(-c3ccc(OC4CCN(C(=O)C5CCC5)CC4)cc3)ccc2cn1` [Example 417, Cyclobutyl-{4-[4-(3-methoxyisoquinolin-6-yl)-phenoxy]-piperidin-1-yl}-methanone], the IC50 was 100 to 999 nM.
The value for `COc1cc2cc(-c3ccc(OC4CCN(C(=O)[C@H]5CCCO5)CC4)cc3)ccc2cn1` [Example 418, {4-[4-(3-Methoxy-isoquinolin-6-yl)-phenoxy]-piperidin-1-yl}-(R)-tetrahydrofuran-2-yl-methanone] was 1 to 99 nM.
The value for `CCC(=O)N1CCC(Oc2ccc(-c3ccc4c(Cl)nccc4c3)cc2)CC1` [Example 419, 1-{4-[4-(1-Chloroisoquinolin-6-yl)-phenoxy]-piperidin-1-yl}-propan-1-one] was 100 to 999 nM; that for `O=C(C1CC1)N1CCC(Oc2ccc(-c3ccc4c(Cl)nccc4c3)cc2)CC1` [Example 420, {4-[4-(1-Chloroisoquinolin-6-yl)-phenoxy]-piperidin-1-yl}-cyclopropyl-methanone] was 100 to 999 nM; that for `CCC(=O)N1CCC(Oc2ccc(-c3ccc4cnc(N(C)C)cc4c3)cc2)CC1` [Example 421, 1-{4-[4-(3-Dimethylaminoisoquinolin-6-yl)-phenoxy]-piperidin-1-yl}-propan-1-one] was 1000 to 10000 nM.
The value for `CCC(=O)N1CCC(Oc2ccc(-c3ccc4cnc(N)cc4c3)cc2)CC1` [Example 422, 1-{4-[4-(3-Aminoisoquinolin-6-yl)-phenoxy]-piperidin-1-yl}-propan-1-one] was 100 to 999 nM.
On to `Nc1cc2cc(-c3ccc(OC4CCN(C(=O)C5CC5)CC4)cc3)ccc2cn1` [Example 423, {4-[4-(3-Aminoisoquinolin-6-yl)-phenoxy]-piperidin-1-yl}-cyclopropyl-methanone], for which the IC50 lay within 100 to 999 nM.
The value for `COc1cc(-c2ccc(OC3CCN(C(=O)[C@H]4CCCO4)CC3)cc2)cn2nccc12` [Example 424, {4-[4-(4-Methoxypyrazolo[1,5-a]pyridin-6-yl)-phenoxy]-piperidin-1-yl}-(R)-tetrahydrofuran-2-yl-methanone, HCl] was 1 to 99 nM; that for `CCC(=O)N1CCC(Oc2ccc(-c3ccc4c(C)nccc4c3)cc2)CC1` [Example 425, 1-{4-[4-(1-Methylisoquinolin-6-yl)-phenoxy]-piperidin-1-yl}-propan-1-one] was 1 to 99 nM; that for `CCC(=O)N1CCC(Oc2ccc(-c3cc(O)c4ccnn4c3)cc2)CC1` [Example 426, 1-{4-[4-(4-Hydroxypyrazolo[1,5-a]pyridin-6-yl)-phenoxy]-piperidin-1-yl}-propan-1-one] was 1000 to 10000 nM.
The value for `O=C(C1CCC1)N1CCC(Oc2ccc(-c3cc(O)c4ccnn4c3)cc2)CC1` [Example 427, Cyclobutyl-{4-[4-(4-hydroxy-pyrazolo[1,5-a]pyridin-6-yl)-phenoxy]-piperidin-1-yl}-methanone] was 1000 to 10000 nM.
In the case of `O=C(C1CCC1)N1CCC(Oc2ccc(-c3ccc4c(Cl)nccc4c3)cc2)CC1` [Example 428, {4-[4-(1-Chloroisoquinolin-6-yl)-phenoxy]-piperidin-1-yl}-cyclobutyl-methanone], the IC50 was in the range of 100 to 999 nM.
Regarding `O=C([C@H]1CCCO1)N1CCC(Oc2ccc(-c3ccc4c(Cl)nccc4c3)cc2)CC1` [Example 429, {4-[4-(1-Chloroisoquinolin-6-yl)-phenoxy]-piperidin-1-yl}-(R)-tetrahydro-furan-2-yl-methanone], the IC50 fell in the range of 1 to 99 nM.
Turning to `CCC(=O)N1CCC(Oc2ccc(-c3ccc4cnc(C)cc4c3)cc2)CC1` [Example 430, 1-{4-[4-(3-Methylisoquinolin-6-yl)-phenoxy]-piperidin-1-yl}-propan-1-one], the IC50 lay within 1000 to 10000 nM.
The value for `Cc1nccc2cc(-c3ccc(OC4CCN(C(=O)[C@H]5CCCO5)CC4)cc3)ccc12` [Example 431, {4-[4-(1-Methylisoquinolin-6-yl)-phenoxy]-piperidin-1-yl}-(R)-tetrahydro-furan-2-yl-methanone] was 1 to 99 nM; that for `COc1nccc2cc(-c3ccc(OC4CCN(C(=O)[C@H]5CCCO5)CC4)cc3)ccc12` [Example 432, {4-[4-(1-Methoxyisoquinolin-6-yl)-phenoxy]-piperidin-1-yl}-(R)-tetrahydro-furan-2-yl-methanone] was 1 to 99 nM.
The value for `CCC(=O)N1CCC(Oc2ccc(-c3ccc4c(OC)nccc4c3)cc2)CC1` [Example 433] was 100 to 999 nM; that for `COc1nccc2cc(-c3ccc(OC4CCN(C(=O)C5CCC5)CC4)cc3)ccc12` [Example 434, Cyclobutyl-{4-[4-(1-methoxyisoquinolin-6-yl)-phenoxy]-piperidin-1-yl}-methanone] was 100 to 999 nM; that for `COc1nccc2cc(-c3ccc(OC4CCN(C(=O)C5CC5)CC4)cc3)ccc12` [Example 435, Cyclopropyl-{4-[4-(1-methoxyisoquinolin-6-yl)-phenoxy]-piperidin-1-yl}-methanone] was 100 to 999 nM.
The value for `Nc1cc2cc(-c3ccc(OC4CCN(C(=O)[C@H]5CCCO5)CC4)cc3)ccc2cn1` [Example 436, {4-[4-(3-Aminoisoquinolin-6-yl)-phenoxy]-piperidin-1-yl}-(R)-tetrahydro-furan-2-yl-methanone] was 1 to 99 nM; that for `Cc1cc2cc(-c3ccc(OC4CCN(C(=O)[C@H]5CCCO5)CC4)cc3)ccc2cn1` [Example 437, {4-[4-(3-Methylisoquinolin-6-yl)-phenoxy]-piperidin-1-yl}-(R)-tetrahydro-furan-2-yl-methanone] was 1 to 99 nM.
